How the values were obtained:
[1] = test system: AR; experiment: AR knockdown in stable transfectants (RT-PCR, immunoblot); format: cell-based, human; conditions: AR-siRNA-expressing TCC-SUP and UMUC3 cells vs. scrambled control-siRNA
Excerpt: (§1) The reporter plasmids [mouse mammary tumor virus (MMTV)-luciferase (Luc) and (ARE)4-Luc (provided by Dr. Michael L. Lu at Harvard Medical School)] as well as a retrovirus vector pMSCV/U6 (Clontech)-AR-siRNA were described in previous studies (Miyamoto et al., Int. J. Cancer, 117:866-72 (2005) and Yeh et al., J. Exp. Med. 198:1899-908 (2003)). Using SuperFect reagent (Qiagen), stable cell lines expressing the AR-siRNA were established by transfecting pMSCV/U6-AR-siRNA into Phi-NX packaging retrovirus producer cells (developed by the Nolan Lab at Stanford University). The target cells (i.e., TCC-SUP, UMUC3, and 5637) were then cultured in the presence of the viral supernatant, and infected cells were selected with puromycin (Sigma).
Total RNA from mouse bladder and xenograft tumor tissues and cultured cells was extracted by the acid guanidinium-phenol-chloroform method as previously described (Miyamoto et al., Cancer, 75:2565-70 (1995)) or by using Trizol reagent (Life Science). […] Using the iCycler (Bio-Rad) and the methods previously described by Miyoshi et al., Prostate, 56:280-6 (2003), real-time quantitative PCR analysis of AR, basic fibroblast growth factor (bFGF), vascular endothelial growth factor (VEGF), and matrix metalloproteinase-9 (MMP-9) was performed on the tissue samples from mouse xenograft tumors. […]

[2] = test system: UMUC3 cells; experiment: Cell proliferation assay (MTT), UMUC3; format: cell-based, human; conditions: UMUC3 stable subline, without androgen treatment, vs. control-siRNA
[3] = test system: TCC-SUP cells; experiment: Cell proliferation assay (MTT), TCC-SUP; format: cell-based, human; conditions: TCC-SUP stable subline, without androgen treatment, vs. control-siRNA
[4] = test system: TCC-SUP and UMUC3 stable sublines (control-siRNA, AR-siRNA); experiment: Tumor incidence (tumorigenicity) study of control-siRNA and AR-siRNA sublines in nude mice; format: in vivo, male athymic nude mouse; conditions: vs. control-siRNA cells with control treatment; treatment from tumor cell implantation; tumor positive at 40 mm3
Excerpt: as §1
Bladder cancer cell lines (TCC-SUP, UMUC3, and 5637) were harvested, washed twice with PBS, and resuspended in Matrigel (BD Bioscience) at a final concentration of 1×10^7 cells/mL. Cells (1×10^6 cells in 100 μl per site) were then injected subcutaneously into the right and left flanks of 6-week-old male athymic nude mouse. Treatment (castration or sham surgery, flutamide [0.5 mg/mouse] or placebo pellet injection, and the recently developed anti-AR molecule ASC-J9 (50 mg/Kg or DMSO injection) (Ohtsu et al., J. Med. Chem., 45:5037-42 (2002)) was initiated either (1) at the same time as tumor cell injection (for tumor incidence studies, n=8 mice in each group) or (2) when the sizes of all tumors reached 40 mm^3 (for tumor progression studies, n=12 tumors from 6 mice in each group). Hormonal pellets were replaced as required (every 90 days). Tumor weight was calculated by the following formula: tumor weight (mg)=tumor length (mm)×[tumor width (mm)]^2×0.5 (Geram et al., Cancer Chemother. Rep., 3:47-52 (1972)). Using calipers, each tumor was measured twice a week until either the tumor size reached 40 mm^3 (for tumor incidence study) (Chen et al., Nat. Med., 10:33-9 (2004)), or until the tumor exceeded 10% of the animal's body weight, at which time the mouse was killed (for tumor progression study).

## AR-siRNA: siRNA against AR expressed from retrovirus vector pMSCV/U6-AR-siRNA; knocks down the AR in mammalian cells (guide GGGCCCCTGGATGGATAGCTACCTCGAGGTAGCTATCCATCCAGGGGCC; listed as Homo sapiens)
[1]
  levels of AR mRNA and protein: substantially lower
[2]
  reduction of cell proliferation by AR knockdown: 15%
[3]
  reduction of cell proliferation by AR knockdown: 20%
[4]
  latency of tumor formation: substantially prolonged

— patent publication US20090282496A1, “Androgen Receptor Related Methods for Treating Bladder Cancer” (University of Rochester Medical Center, priority 2008, published 2009)
